Laboratory results reported in patent publication US20050227337A1, “Method for producing ascorbic acid intermediates” (priority 1998, published 2005).

Legend:
[1] = system: reductase and glucose dehydrogenase (GDH); test: NADPH/NADP+ ratio in cofactor recycling reaction (absorbance at 340 nm); type: biochemical; conditions: final concentration 0.5 M NaCl; room temperature, pH 7
Experimental: Therefore, if the two cofactors are mixed together, the amount of NADPH present can be determined by the absorbance at 340 nm. If the amount of NADP+ originally added is also known, the ratio of the two cofactors can then be easily determined. This method can be used to measure how the addition of various components to a reaction, such as a cofactor recycling reaction, affects the reaction equilibrium.
A 1 ml reaction was set up in a cuvette at room temperature. The reaction consisted of buffer (50 mM bis-tris, pH 7), 5 mg glucose, 5 mg 2,5-DKG, 100 uM NADPH, 100 uM NADP+, reductase and glucose dehydrogenase (GDH). The enzymes were added last to initiate the reaction, and the cofactor levels were monitored at 340 nm. After equilibrium was reached (FIG. 7), an additional aliquot of GDH was added. Very quickly the equilibrium shifted to favor more NADPH being present. Addition of more GDH gave the same response.
Another 1 ml incubation was set up as above. After it reached equilibrium, 29 mg of NaCl was added to it to give a final concentration of 0.5 M NaCl.

[2] = system: 2-keto-D-gluconate dehydrogenase; conditions: reported by Shinagawa and Ameyama (1982); cited from earlier work
GDH from T. acidophilum = target: T1, GDH from T. acidophilum (Thermoplasma acidophilum, UniProt P13203); test: GDH activity in the presence of methanol; type: biochemical; conditions: incubated with 10% methanol; 50 mM Tris, pH 7
T1 construct: purchased Sigma
T1 sequence (P13203 1-361): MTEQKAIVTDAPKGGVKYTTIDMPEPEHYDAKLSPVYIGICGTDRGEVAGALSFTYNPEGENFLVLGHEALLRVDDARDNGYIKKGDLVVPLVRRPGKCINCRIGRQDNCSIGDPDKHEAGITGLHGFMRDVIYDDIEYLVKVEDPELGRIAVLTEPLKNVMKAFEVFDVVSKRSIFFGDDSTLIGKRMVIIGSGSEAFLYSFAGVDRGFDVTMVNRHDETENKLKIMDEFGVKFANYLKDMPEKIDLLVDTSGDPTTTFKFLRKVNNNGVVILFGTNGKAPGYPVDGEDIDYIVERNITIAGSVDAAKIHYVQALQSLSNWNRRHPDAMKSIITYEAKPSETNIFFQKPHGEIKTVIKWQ

[3] = system: D-gluconic acid dehydrogenase; test: D-gluconic acid dehydrogenase activity in permeabilized cells with methanol (product formation, HPLC); type: biochemical, P. citrea; conditions: permeabilized cells with 15% MeOH and gluconic acid
Experimental: (§1) 400 ml of P. citrea cells having a mutation in the naturally occurring membrane bound GDH was grown to 80 OD (600 nm) in 10 g/L gluconate, and mixed with 16 ml of a mixture of 10% toluene and 90% acetone for 3 minutes at 22 C. The permeabilized cells were then centrifuged for 10 minutes at 9000 rpm, and the resulting cell pellet was washed with 400 ml of 50 mM tris, pH 7. The washings were repeated twice more to ensure removal of residual organic solvent.
(§2) Permeabilized cells were incubated with 15% MeOH and gluconic acid.

[4] = system: 2-keto-D-gluconic acid dehydrogenase; test: 2-keto-D-gluconic acid dehydrogenase activity in permeabilized cells with methanol (product formation, HPLC); type: biochemical, P. citrea; conditions: permeabilized cells with 15% MeOH and gluconic acid
Experimental: as §1, §2

[Cl-].[Na+] [NaCl, sodium chloride]
shift of NADPH/NADP+ equilibrium [1]: dramatically shifted the equilibrium to favor the presence of NADPH

O=C(O)CCC(=O)O [succinate]
effect on 2-keto-D-gluconate dehydrogenase [2]: inhibit

CO [methanol]
GDH activity (GDH from T. acidophilum): small decrease in activity | activity of D-gluconic acid dehydrogenase [3]: not significantly affected | activity of 2-keto-D-gluconic acid dehydrogenase [4]: not significantly affected

O=C(O)CC(O)(CC(=O)O)C(=O)O [citrate]
effect on 2-keto-D-gluconate dehydrogenase [2]: inhibit
